The text below walks through data of US8790678B2, “Biomaterials having nanoscale layers and coatings” (Washington University, priority 2006, dated 2014).

Data set [1] can be described thus: Hydrogel mesh size by modified SDS-PAGE gel. It is filed as physicochemical. The following applies: PEG-OVS/albumin layer in SDS-PAGE gel. On the procedure: The mesh size of PEG-OVS/albumin hydrogels was investigated using a modified SDS-PAGE gel to characterize the migration of albumin through the PEG hydrogels. A 15% acrylamide gel was formed at the bottom of the casting chamber, with a spacer to form a well on the left side of the gel. After the acrylamide solidified, the PEG-OVS/albumin precursor solution was pipetted into the formed well. The casting stand was placed in a humidified 37° C. incubator for 24 h to crosslink the PEG gel. A 7% acrylamide gel was formed over the polymerized gels, followed by a stacking gel. A solution of bovine serum albumin (BSA) was loaded into the wells of the gel, which was run under standard conditions. The gel was stained with Coomassie Blue.

In another data set the test system is D-erythro-sphingosine. The experiment in a line: Activity of GST-tagged sphingosine kinase by TLC. It is filed as biochemical, human. As to conditions: 10 μg/mL protein, 50 μM D-erythro-sphingosine. The text has this:
Hydrogels were formed with the enzyme sphingosine kinase to produce S1P in the materials from a precursor (sphingosine) naturally present in the blood. Human sphingosine kinase was cloned by RT-PCR from human umbilical vein endothelial cell mRNA. The PCR insert with the correct sequence was transferred from the cloning vector to the expression vector, pGEX-6P-1, using the restriction enzymes EcoRI and XhoI, to create an N-terminal GST-tagged sphingosine kinase [SEQ ID NO. 1]. The plasmid with the correct sequence was transfected into BL21 E. coli and the cells were grown to OD600 0.6 in LB medium. Protein expression was induced with 1 mM IPTG. After 3 h, the cells were harvested by centrifugation for 20 min at 6000 g, 4° C. The cells were lysed with lysozyme and sonication. The lysate was centrifuged at 50,000 g for 45 min at 4° C. and the supernatant was filtered. The GST-containing protein was purified using GSTrap FF columns. Activity of the protein (10 μg/mL) was assessed by incubation with 50 μM D-erythro-sphingosine and […] in 0.1% BSA in PBS for 0-30 min, followed by dilution 1:1 with methanol and acidification to pH 1 with HCl. Lipids were extracted into chloroform and analyzed by thin layer chromatography on silica plates with butanol-acetic acid-water 6:2:2, with detection by ninhydrin. There was complete conversion to sphingosine 1-phosphate within 30 min.

The next data set concerns HAEC. Put plainly: Centrifugation assay of cell adhesion strength on RGD hydrogels. It is filed as cell-based, human. As to conditions: range as RGD concentration in PEG-OVS/albumin hydrogel was increased; 6 h adhesion. On the procedure:
Cell adhesion strengths to the RGD containing hydrogel surfaces were assessed using a centrifugation assay to apply controlled detachment forces. PEG hydrogels (75 μL) of various concentrations of RGD were formed on the bottom of a 48-well non-treated culture plate. Following crosslinking for 24 h, HAEC were seeded onto the gels at 10,000 cells/cm^2 in 500 μL EGM. After 6 h to allow the cells to attach and spread, the gels were washed with DPBS. The wells were filled with DPBS to the top of the wells and then covered with adhesive sealing tape. Images were obtained at 4× to quantify the number of cells initially attached to the hydrogel. […] The percent of cells remaining on the hydrogel was quantified. […]
The effects of changing the linear RGD concentration on the initial adhesion strength of endothelial cells to PEG-OVS/albumin hydrogels were examined. […] Cell adhesion strengths were assessed by centrifugation of inverted, sealed plates containing hydrogels polymerized in the bottoms of wells. The percent of cells remaining adhered to the hydrogels after centrifugation for 5 min was measured for various forces of detachment on each concentration of linear RGD. […]
The initial adhesion strength of endothelial cells to the PEG hydrogels containing cyclic RGD peptide was measured after 6 hours to allow for endothelial cell adhesion. […]

Data set [2] has as its system Human Umbilical Vein Endothelial Cells (HUVEC). Put plainly: Cell adhesion assay on layer-by-layer PEG hydrogel coatings. It is filed as cell-based. The following applies: RGD peptide attached to PEG-VS/PEG-diamine hydrogel; medium containing serum proteins. The method, then:
Hydrogels were formed layer-by-layer by conjugate addition reactions between PEG-VS and PEG-diamine. First, the surface of the substrate was activated to create reactive amine groups. Clean glass coverslips were incubated in 2% 3-aminopropyltriethoxysilane in dry acetone solution for one hour with gentle shaking. The aminophase coverslips were then cured at 100° C. for a 3 h, and stored in a clean Petri dish until use. The activated substrates were incubated with a solution containing 1% eight-arm PEG-VS overnight at pH 8.5 and 37° C. The substrates were subsequently incubated with a solution of 1% PEG-diamine (mol. wt. 3400, Shearwater Polymers) for 1 h at 37° C. This two-step process was repeated to create multiple layers (one layer comprises PEG-VS+PEG-diamine). Between incubations with PEG-VS or PEG-diamine, the surfaces were washed six times with PBS. After the formation of five layers, the substrates were incubated with PEG-VS for 1 h at 37° C. […]
The RGD peptide acetyl-GCGYGRGDSPG [SEQ ID NO. […] The peptide was purified by C18 chromatography and analyzed by MALDI-TOF mass spectrometry. […]
Human Umbilical Vein Endothelial Cells (HUVEC, Clonetics) were grown in endothelial cell growth medium (EGM, Clonetics) on tissue culture polystyrene at 37° C. and 5% CO2. […] Cells on the surfaces were imaged by phase contrast microscopy and the number of cells was counted manually.

In data set [3] the test system is Human aortic endothelial cells. The experiment in a line: Single cell tracking on RGD/PEG-OVS/albumin hydrogels under fluid shear stress. Type of data set: cell-based. The following applies: for loss of cells from the hydrogel: highest RGD concentration, over 12 h. The method, then:
Human aortic endothelial cells seeded onto RGD/PEG-OVS/albumin hydrogels at 1000-2000 cells/cm^2 were tracked under 20 dynes/cm^2 fluid shear stress in HEPES-buffered low serum medium (HEPES-LSM; MCDB 131 with 0.1% FBS, 1% ABAM, […] HEPES, pH 7.4) containing 0.4% FAF-BSA for 12 h.
Time lapse microscopy images were obtained every 2 min for 12 h of endothelial cell migration on the surface of RGD containing PEG hydrogels. The percent of cells remaining on the gels during the course of the experiment was recorded for each RGD concentration. The projected cell areas of all cells were determined by manually outlining the cells after 3 h under 20 dyne/cm^2 shear stress. Single endothelial cells were manually tracked for 12 h to obtain XY-coordinate data for the center of each cell. Coordinate data from every six minutes (Δt=6 min) for all cells in each experiment were saved as variables for analysis in MATLAB (The MathWorks, Natick, Mass.). At each time point i, ti=iΔt, the mean squared displacement was calculated using the overlapping interval method. The speed of each individual was calculated by dividing the root mean-square displacement for a single time interval by the tracking interval (6 min). Each cell's persistence time was determined by fitting the persistent random walk model given by Equation 1: <d^2(t)>=2S^2P[t−P(1−e^−t/P)] [1] using the calculated speed by nonlinear least squares regression analysis as previously described (Dunn 1983; Othmer, Dunbar and Alt 1988; Harms et al. 2005). Speed simply represents the total path length of a cell over time. Persistence time represents the time period between changes in the direction of movement of more than 60°. Path length is calculated as the product of speed and persistence time. Cell dispersion is the product of speed squared and persistence time. Cell areas were obtained by manually tracing cells. All data was analyzed by ANOVA Scheffe post hoc. Endothelial Response to Linear RGD Concentration—Cell Attachment Strength

The test system of data set [4] is chorioallantoic membrane (CAM). The experiment in a line: Chick chorioallantoic membrane (CAM) angiogenesis assay. Type of data set: in vivo, chicken. As to conditions: 50 ng spotted on Thermanox coverslip, two days. The method, then: Embryonated chicken eggs were incubated blunt-end up in a 37° C. incubator. At embryonal day 6, the top of the egg was cracked and removed using tweezers to create a 1.5 cm diameter opening. The inner shell membrane was removed, exposing the CAM. A 20 μL PEG hydrogel was then placed onto the CAM. As controls, 50 ng bFGF or 50 ng S1P were spotted onto small pieces of Thermanox coverslips (Nunc), air dried and placed onto the CAM. The eggs were sealed with parafilm and returned to the incubator. After two days of incubation, the eggs were reopened and the degree of angiogenesis was visually assessed.

Data set [5] can be described thus: Sulforhodamine B release from preloaded hydrogels. As to conditions: 500 nmol preloaded, 554 nm. It is filed as physicochemical. The method, then: The effect of gel mesh size on the diffusion of small molecules was tested using a water-soluble dye molecule, sulforhodamine B. Sulforhodamine B (500 nmol) was preloaded into gels formed with PEG-OVS crosslinked with albumin, PEG-diamine, or DTT. The gels were incubated win PBS and the release of sulforhodamine B was detected by visible light spectroscopy at 554 nm over time. The molecular weight of sulforhodamine is 580.7, compared to 379.5 for S1P, and the diffusivity of the dye would be expected to be lower than that of S1P. Using the Wilke-Chang correlation, we calculated a diffusion coefficient of 3.42×10^−6 cm^2/sec for sulforhodamine and 4.15×10^−6 cm^2/sec for S1P, both at 37° C.

Bridges are numbered along the chain shown (N, C = ends). Where no end group is shown, it is not given here. A value given as a limit tells only on which side of the number the result lay.

For the compound aprotinin, in data set [1], the “migration of protein through the PEG hydrogel” value is “freely passed through”.

“Albumin: bovine serum albumin loaded on the SDS-PAGE gel”: the “migration of protein through the PEG hydrogel” value in data set [1] is listed as “hindered”.

As to “lysozyme: molecular weight marker (14.4 kDa)”, in data set [1], the “migration of protein through the PEG hydrogel” value is “freely passed through”.

Regarding “N-terminal GST-tagged sphingosine kinase: human sphingosine kinase cloned from HUVEC mRNA with N-terminal GST tag”, in the data set on D-erythro-sphingosine, the “time to complete conversion to sphingosine 1-phosphate” value was not above 30 min.

As for “acetyl-GCGYGRGDSPG (Ac-GCGYGRGDSPG; not fully specified (C-terminus); printed as acetyl-GCGYGRGDSPG) [linear RGD, cell adhesion-promoting peptide]”, in the data set on HAEC, the “detachment force required to remove 50% of the cells (F50)” value is given as 850-1120 pN. In data set [2], the “HUVEC adhesion to multilayered PEG hydrogel” value is listed as “restored HUVEC adhesion”. In data set [3] (20 dyne/cm^2), the “loss of cells from the hydrogel” value is recorded as “less than 5%”. In data set [3] (without S1P), the “RGD concentration of maximum dispersion” value is 4.12 mM and the “RGD concentration of maximum path length” value was 4.12 mM. The “RGD concentration of maximum cell speed” value in data set [3] (without S1P, 20 dynes/cm^2) was 4.12 mM.

On to “bFGF: control angiogenic factor in CAM assay”, for which the angiogenic response result in data set [4] is on record as “strong angiogenic responses”.

In the case of `CCN(CC)c1ccc2c(-c3ccc(S(=O)(=O)O)cc3S(=O)(=O)[O-])c3ccc(=[N+](CC)CC)cc-3oc2c1` [sulforhodamine B], in data set [5], the “time to near complete release of dye into PBS” value is recorded as approximately 6 h.

For the compound “Ac-GCNAC*RGDGWC*G (Ac-GCNACRGDGWCG; disulfide 5-11) [cyclic RGD, cyclic RGD peptide cyclized by disulphide formation]”, in data set [3] (0.69 mM cyclic RGD, 100 nM S1P), the “cell migration speed relative to cells without RGD” value is “more than twice” and the “migration speed greater than the highest speed on linear RGD with 100 nM S1P” value was 44%. Besides, the “loss of cells from the hydrogel” value in data set [3] (20 dyne/cm^2) was “about 20%”. Further, the “RGD concentration of peak migration speed” value in data set [3] (with 100 nM S1P, 20 dyne/cm^2) was found to be 0.69 mM.
